The values that follow are results of earlier work, collected in US11564963B2, “Topical compositions, process of large-scale manufacture, and method of use” (Progeneron, LLC, priority 2017, dated 2023).

In brackets after ≈: the same amount, converted by molar mass.

For data set [1] the following is noted: rats.
For data set [2], the system named is Gram-negative bacteria and fungi.
For data set [3] the following is noted: 20° C.

`OCc1ccccc1` [Benzyl Alcohol]: in data set [1], the LD50 is reported as 1.2 gm/kg.
On to `[H]/N=C(\N/C(=N/[H])NCCCCCCNC(=N)NC(=N)Nc1ccc(Cl)cc1)Nc1ccc(Cl)cc1` [Chlorhexidine], for which the “concentrations required for Gram-negative bacteria and fungi” value in data set [2] is 10 to 73 µg/mL.
For the compound `NC(=O)c1cccnc1` [Niacinamide], the pKa result is recorded as “about 3.35”. For the same compound, the solubility in water in data set [3] was 691 mg/mL (≈ 5660 mM).
